Laboratory results as given in PubChem BioAssay AID248 (DTP/NCI, 2004).
Where “and” joins values, the source holds several entries; their conditions need not be identical. Equal entries are not always repeated. Inconclusive results and toxic doses are left out.

Tested on: L1210 leukemia ip in BDF1 mice, survival T/C
Assay: NCI In Vivo Anticancer Drug Screen. Data for tumor model L1210 Leukemia (intraperitoneal) in B6D2F1 (BDF1) mice
Details: endpoint: mean survival time, higher = longer survival
Summary of the method: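 In this screen, tumor-bearing mice given compound are compared to those given vehicle, and their survival values are reported as a treated-to-control quotient.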

[1] = dose: 100.0 mg/kg/injection, schedule: Q04DX003 (ip), vehicle: saline
[2] = dose: 200.0 mg/kg/injection, schedule: Q04DX003 (ip), vehicle: saline
[3] = dose: 100.0 mg/kg/injection, schedule: Q01DX009 (ip), vehicle: saline
[4] = dose: 25.0 mg/kg/injection, schedule: Q01DX009 (ip), vehicle: saline
[5] = dose: 25.0 mg/kg/injection, schedule: Q04DX002 (ip), vehicle: saline
[6] = dose: 50.0 mg/kg/injection, schedule: Q01DX009 (ip), vehicle: saline
[7] = dose: 50.0 mg/kg/injection, schedule: Q04DX002 (ip), vehicle: saline
[8] = dose: 100.0 mg/kg/injection, schedule: Q04DX002 (ip), vehicle: saline
[9] = dose: 100.0 mg/kg/injection, schedule: Q04DX003 (ip), vehicle: Klucel (hydroxypropylcellulose) (HPC)
[10] = dose: 200.0 mg/kg/injection, schedule: Q04DX003 (ip), vehicle: Klucel (hydroxypropylcellulose) (HPC)
[11] = dose: 100.0 mg/kg/injection, schedule: Q04DX002 (ip), vehicle: saline with Tween-80
[12] = dose: 200.0 mg/kg/injection, schedule: Q04DX002 (ip), vehicle: saline with Tween-80
[13] = dose: 400.0 mg/kg/injection, schedule: Q04DX002 (ip), vehicle: saline with Tween-80

For `CCOC(=O)N1CCN(CCO)CC1`, the T/C [1] was 102 % of control and the T/C [2] was 94 % of control.

With `C#CC(OC(=O)c1cc([N+](=O)[O-])cc([N+](=O)[O-])c1)C1OC(C)(C)OC1C1COC(C)(C)O1` (configuration not stated) the T/C (dose: 100.0 mg/kg/injection, schedule: Q01DX001 (ip), vehicle: carboxymethylcellulose (CMC)) was 106 % of control, the T/C (dose: 200.0 mg/kg/injection, schedule: Q01DX001 (ip), vehicle: carboxymethylcellulose (CMC)) was 106 % of control and the T/C (dose: 400.0 mg/kg/injection, schedule: Q01DX001 (ip), vehicle: carboxymethylcellulose (CMC)) was 106 % of control.

For `CS(=N)(=O)CC(N)C(=O)O` (configuration not stated), the T/C [3] was 95 % of control, the T/C (dose: 200.0 mg/kg/injection, schedule: Q01DX009 (ip), vehicle: saline) was 114 % of control and the T/C (dose: 400.0 mg/kg/injection, schedule: Q01DX009 (ip), vehicle: saline) was 95 % of control.

For `CN(CCC(C#N)c1ccccc1)C(=O)c1ccccc1` (configuration not stated), the T/C (dose: 75.0 mg/kg/injection, schedule: Q01DX001 (ip), vehicle: saline) was 98 % of control and the T/C (dose: 150.0 mg/kg/injection, schedule: Q01DX001 (ip), vehicle: saline) was 96 % of control.

`NC(=O)OCCOCCOC(N)=O` was tested, and the T/C (dose: 100.0 mg/kg/injection, schedule: Q04DX003 (ip), vehicle: saline with Tween-80) was 98 % of control, the T/C (dose: 200.0 mg/kg/injection, schedule: Q04DX003 (ip), vehicle: saline with Tween-80) was 98 % of control and the T/C (dose: 400.0 mg/kg/injection, schedule: Q04DX003 (ip), vehicle: saline with Tween-80) was 101 % of control.

With `CCN(CC)CCCC(C)Nc1ccc(NC(C)CCCN(CC)CC)c2c1C(=O)c1ccccc1C2=O` (configuration not stated) the T/C [4] was 96 % of control, the T/C [5] was 92 % of control and the T/C [6] was 89 % of control. The T/C [7] was 103 % of control and the T/C [8] was 96 % of control and 98 % of control.

For `O=C(N/N=C\c1ccc(Cl)c(Cl)c1)N/N=C/c1ccc(Cl)c(Cl)c1`, the T/C (dose: 50.0 mg/kg/injection, schedule: Q04DX003 (ip), vehicle: Klucel (hydroxypropylcellulose) (HPC)) was 92 % of control, the T/C [9] was 87 % of control and the T/C [10] was 92 % of control.

With `CCCC(=O)Nc1cc([N+](=O)[O-])ccc1O` the T/C (dose: 50.0 mg/kg/injection, schedule: Q01DX009 (ip), vehicle: saline with Tween-80) was 97 % of control and 106 % of control, the T/C [11] was 93 % of control and 95 % of control and the T/C [12] was 95 % of control and 97 % of control. The T/C [13] was 95 % of control and 92 % of control.

In the case of `Cc1ccc(CNc2ccccc2)cc1`, the T/C (dose: 12.5 mg/kg/injection, schedule: Q04DX003 (ip), vehicle: saline with Tween-80) is reported as 95 % of control, the T/C (dose: 25.0 mg/kg/injection, schedule: Q04DX003 (ip), vehicle: saline with Tween-80) is reported as 95 % of control and the T/C (dose: 50.0 mg/kg/injection, schedule: Q04DX003 (ip), vehicle: saline with Tween-80) is reported as 97 % of control. For the same molecule, the T/C (dose: 100.0 mg/kg/injection, schedule: Q01DX009 (ip), vehicle: other) was 112 % of control, the T/C (dose: 200.0 mg/kg/injection, schedule: Q01DX009 (ip), vehicle: other) was 93 % of control and the T/C (dose: 400.0 mg/kg/injection, schedule: Q01DX009 (ip), vehicle: other) was 93 % of control.

In the case of `CC(O)C(C)(C)C(O)C(=O)NCCSc1ccc(Cl)cc1` (configuration not stated), the T/C (dose: 100.0 mg/kg/injection, schedule: Q01DX001 (ip), vehicle: acetone) is reported as 104 % of control, the T/C (dose: 200.0 mg/kg/injection, schedule: Q01DX001 (ip), vehicle: acetone) is reported as 104 % of control and the T/C (dose: 400.0 mg/kg/injection, schedule: Q01DX001 (ip), vehicle: acetone) is reported as 102 % of control.

For `Cc1c2cnccc2c(C)c2c1sc1ccccc12`, the T/C (dose: 75.0 mg/kg/injection, schedule: Q01DX001 (ip), vehicle: other) was 101 % of control, the T/C (dose: 150.0 mg/kg/injection, schedule: Q01DX001 (ip), vehicle: other) was 106 % of control and the T/C (dose: 300.0 mg/kg/injection, schedule: Q01DX001 (ip), vehicle: other) was 124 % of control.

In the case of `CN(C)C1CCc2ccc3ccccc3c2C1=O` (configuration not stated), the T/C [6] is reported as 88 % of control.

For `CCC[CH2][Pb]([CH2]CCC)([CH2]CCC)[CH2]CCC`, the T/C [11] was 107 % of control, the T/C [12] was 105 % of control and the T/C [13] was 102 % of control.

With `CNC(N)=S` the T/C [1] was 99 % of control, the T/C [2] was 94 % of control and the T/C (dose: 400.0 mg/kg/injection, schedule: Q04DX003 (ip), vehicle: saline) was 97 % of control.

For `CCC(=O)OC1(c2ccccc2)CCN(C)C1C` (configuration not stated), the T/C (dose: 6.25 mg/kg/injection, schedule: Q01DX009 (ip), vehicle: saline) was 101 % of control, the T/C (dose: 12.5 mg/kg/injection, schedule: Q01DX009 (ip), vehicle: saline) was 97 % of control and the T/C [4] was 103 % of control. The T/C (dose: 25.0 mg/kg/injection, schedule: Q04DX003 (ip), vehicle: saline) was 103 % of control, the T/C [6] was 111 % of control and the T/C (dose: 50.0 mg/kg/injection, schedule: Q04DX003 (ip), vehicle: saline) was 105 % of control. For the same molecule, the T/C [3] was 103 % of control and the T/C [1] was 100 % of control.

In the case of `O=C(c1ccccc1)c1ccc(Cl)c(Cl)c1`, the T/C [9] is reported as 98 % of control, the T/C [10] is reported as 89 % of control and the T/C (dose: 400.0 mg/kg/injection, schedule: Q04DX003 (ip), vehicle: Klucel (hydroxypropylcellulose) (HPC)) is reported as 93 % of control.

In the case of `CN1CCN(c2ccccc2)CC1`, the T/C (dose: 25.0 mg/kg/injection, schedule: Q01DX001 (ip), vehicle: saline with Tween-80) is reported as 168 % of control, the T/C (dose: 50.0 mg/kg/injection, schedule: Q01DX001 (ip), vehicle: saline with Tween-80) is reported as 98 % of control and the T/C (dose: 100.0 mg/kg/injection, schedule: Q01DX001 (ip), vehicle: saline with Tween-80) is reported as 196 % of control.

For `c1cc(CCCc2ccncc2)ccn1`, the T/C [5] was 108 % of control, the T/C [7] was 95 % of control and the T/C [8] was 95 % of control.

For `COc1cccc2c1C(=O)c1c(O)c3c(c(O)c1C2=O)C[C@@](O)(C(=O)COC(=O)Cc1ccccc1)C[C@@H]3OC1CC(N)C(O)C(C)O1` (some centres not stated), the T/C (dose: 1.3 mg/kg/injection, schedule: Q01DX009 (ip), vehicle: saline) was 152 % of control, the T/C (dose: 2.0 mg/kg/injection, schedule: Q01DX009 (ip), vehicle: saline) was 167 % of control and the T/C (dose: 3.0 mg/kg/injection, schedule: Q01DX009 (ip), vehicle: saline) was 173 % of control. The T/C (dose: 6.8 mg/kg/injection, schedule: Q01DX009 (ip), vehicle: saline with Tween-80) was 104 % of control.

With `CC1CN=C(N)NC1=O` (configuration not stated) the T/C (dose: 100.0 mg/kg/injection, schedule: Q01DX Z (ip), vehicle: saline) was 104 % of control and the T/C (dose: 200.0 mg/kg/injection, schedule: Q01DX Z (ip), vehicle: saline) was 119 % of control.
